Measurements reported in patent publication US8003660B2, “Modulators of muscarinic receptors” (Vertex Pharmaceuticals Incorporated, priority 2006, dated 2011).
Where two headings read alike, the source gives them in different places.

What was measured:
Type in all cases: cell-based
[1] = target: T1, M3 muscarinic receptor (Homo sapiens, UniProt P20309); assay: Functional mobilization of intracellular calcium (FLIPR) in CHO cells expressing M3; details: for EC50: CHO cells expressing M3, FLIPR calcium; for Emax: CHO; for M3 Activity: CHO cells expressing M3, FLIPR calcium assay
T1 construct: expressed in transfected cells; host or cells: CHO (M3-CHO)
T1 sequence (P20309 whole entry): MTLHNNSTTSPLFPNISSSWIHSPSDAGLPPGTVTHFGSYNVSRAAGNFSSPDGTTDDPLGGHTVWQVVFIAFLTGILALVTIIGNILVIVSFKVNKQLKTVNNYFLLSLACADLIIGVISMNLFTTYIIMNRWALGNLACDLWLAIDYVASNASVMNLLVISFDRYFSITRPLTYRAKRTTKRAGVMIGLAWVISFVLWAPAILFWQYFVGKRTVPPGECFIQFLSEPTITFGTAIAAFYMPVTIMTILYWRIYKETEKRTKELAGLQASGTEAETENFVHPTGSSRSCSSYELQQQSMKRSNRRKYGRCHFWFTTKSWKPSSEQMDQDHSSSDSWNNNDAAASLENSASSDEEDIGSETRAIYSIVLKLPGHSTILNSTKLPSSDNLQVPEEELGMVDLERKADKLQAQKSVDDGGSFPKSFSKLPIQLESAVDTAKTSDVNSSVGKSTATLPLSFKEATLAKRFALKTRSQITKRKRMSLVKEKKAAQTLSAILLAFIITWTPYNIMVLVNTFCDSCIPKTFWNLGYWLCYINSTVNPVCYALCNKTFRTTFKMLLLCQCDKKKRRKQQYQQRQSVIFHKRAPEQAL
In short: (§1)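 Recombinant CHO cells loaded with Fluo-3 AM or Calcium 3 dye in pH 7.4 buffer containing 1 mM probenecid, with 0.5% final DMSO. For agonism, compound is added directly. For inhibition, it is preincubated 15 min, or co-applied, before carbachol at EC80. FLIPR fluorescence (ex 488, em 540 nm) is recorded for 60 s.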

[2] = target: T2, M2 muscarinic receptor (Homo sapiens, UniProt P08172); assay: Functional mobilization of intracellular calcium (FLIPR) in CHO cells expressing M2; details: for EC50: CHO cells expressing M2, FLIPR calcium; for Emax: CHO; for M2 Activity: CHO cells expressing M2, FLIPR calcium assay
T2 construct: expressed in transfected cells; host or cells: CHO (M2-CHO)
T2 sequence (P08172 1-466): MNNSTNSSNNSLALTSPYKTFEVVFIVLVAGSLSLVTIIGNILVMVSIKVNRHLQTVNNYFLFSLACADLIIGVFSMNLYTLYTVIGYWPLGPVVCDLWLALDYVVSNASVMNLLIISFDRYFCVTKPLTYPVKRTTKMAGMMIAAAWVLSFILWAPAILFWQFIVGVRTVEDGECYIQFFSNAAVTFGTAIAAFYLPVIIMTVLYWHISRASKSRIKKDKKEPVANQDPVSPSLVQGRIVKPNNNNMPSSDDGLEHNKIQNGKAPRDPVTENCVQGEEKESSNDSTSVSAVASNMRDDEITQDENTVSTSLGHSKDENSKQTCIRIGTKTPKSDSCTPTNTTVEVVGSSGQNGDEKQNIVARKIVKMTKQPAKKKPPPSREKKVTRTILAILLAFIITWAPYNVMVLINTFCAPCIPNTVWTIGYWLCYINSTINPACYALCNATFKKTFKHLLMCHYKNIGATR
In short: as §1

[3] = target: T3, M4 muscarinic receptor (Homo sapiens, UniProt P08173); assay: Functional mobilization of intracellular calcium (FLIPR) in CHO cells expressing M4; details: for EC50: CHO cells expressing M4, FLIPR calcium; for Emax: CHO; for M4 Activity: CHO cells expressing M4, FLIPR calcium assay
T3 construct: expressed in transfected cells; host or cells: CHO (M4-CHO)
T3 sequence (P08173 1-479): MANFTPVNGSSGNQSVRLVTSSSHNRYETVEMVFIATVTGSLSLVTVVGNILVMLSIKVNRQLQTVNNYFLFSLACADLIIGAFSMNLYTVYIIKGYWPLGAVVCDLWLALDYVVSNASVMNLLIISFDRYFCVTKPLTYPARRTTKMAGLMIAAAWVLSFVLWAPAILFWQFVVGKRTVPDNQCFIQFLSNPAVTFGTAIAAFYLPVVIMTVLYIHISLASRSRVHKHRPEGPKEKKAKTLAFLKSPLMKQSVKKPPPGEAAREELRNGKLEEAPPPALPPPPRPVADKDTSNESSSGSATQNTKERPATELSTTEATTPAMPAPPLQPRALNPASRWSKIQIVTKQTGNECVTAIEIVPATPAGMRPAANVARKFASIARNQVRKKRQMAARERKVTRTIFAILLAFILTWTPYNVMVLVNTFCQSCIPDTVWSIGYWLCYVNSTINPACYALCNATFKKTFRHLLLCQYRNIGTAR
In short: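 Read-out: FLIPR fluorescence (ex 488, em 540 nm) over 60 s. Recombinant CHO lines are dye-loaded (Fluo-3 AM or Calcium 3) with 1 mM probenecid. For antagonist mode, compound is pre-incubated 15 min, or co-applied, then carbachol is added at 3× EC80 per subtype.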

[4] = target: T4, M1 muscarinic receptor (Homo sapiens, UniProt P11229); assay: Functional mobilization of intracellular calcium (FLIPR) in CHO cells expressing M1; details: for EC50: CHO cells expressing M1, FLIPR calcium; for Emax: CHO; for M1 Activity: CHO cells expressing M1, FLIPR calcium assay
T4 construct: expressed in transfected cells; host or cells: CHO (M1-CHO)
T4 sequence (P11229 1-460): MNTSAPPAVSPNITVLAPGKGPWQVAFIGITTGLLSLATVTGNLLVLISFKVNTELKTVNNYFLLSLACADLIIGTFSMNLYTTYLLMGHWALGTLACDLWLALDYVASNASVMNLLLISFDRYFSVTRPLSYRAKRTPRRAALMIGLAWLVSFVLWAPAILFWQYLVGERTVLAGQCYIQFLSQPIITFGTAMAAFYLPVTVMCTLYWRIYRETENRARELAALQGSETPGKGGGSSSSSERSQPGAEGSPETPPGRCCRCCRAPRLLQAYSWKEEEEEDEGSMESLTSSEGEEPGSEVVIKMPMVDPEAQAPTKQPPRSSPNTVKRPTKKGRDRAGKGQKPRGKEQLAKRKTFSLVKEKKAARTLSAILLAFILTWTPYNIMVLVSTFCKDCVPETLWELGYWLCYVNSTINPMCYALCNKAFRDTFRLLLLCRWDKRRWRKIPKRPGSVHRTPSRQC
In short: as §1

[5] = 100% = maximum response obtained with the Carbachol control, read-out: M3 Efficacy
[6] = 100% = maximum response obtained with the Carbachol control, read-out: M2 Efficacy
[7] = 100% = maximum response obtained with the Carbachol control, read-out: M4 Efficacy
[8] = 100% = maximum response obtained with the Carbachol control, read-out: M1 Efficacy
[9] = 100% efficacy = maximum response obtained with the Carbachol control

Row | Structure (SMILES) | EC50 [1] | Emax [1, 5] | EC50 [2] | Emax [2, 6] | EC50 [3] | Emax [3, 7] | EC50 [4] | Emax [4, 8] | M3 Activity [1] | Emax [1, 9] | M2 Activity [2] | Emax [2, 9] | M4 Activity [3] | Emax [3, 9] | M1 Activity [4] | Emax [4, 9]
1 | CC(=O)N[C@H]1CCC2(CCN(CCCCC(C)(C)C#N)CC2)c2ccccc21 [compound 179] | > 5 µM | < 25% | > 5 µM | < 25% | > 5 µM | < 25% | < 2 µM | 25 to 100% |  |  |  |  |  |  |  | 
2 | Cn1cnc(C(=O)N[C@@H]2CCC3(CCN(CCC(C)(C)C)CC3)c3cc(F)ccc32)c1 [compound 180] | > 5 µM | < 25% | < 2 µM | 25 to 100% | < 2 µM | 25 to 100% | < 2 µM | 25 to 100% |  |  |  |  |  |  |  | 
3 | CCN(C(=O)COC)[C@H]1CCC2(CCN(CCC(C)(C)C)CC2)c2ccccc21 [compound 181] | > 5 µM | < 25% | > 5 µM | < 25% | < 2 µM | 25 to 100% | 2 to 5 µM | 25 to 100% |  |  |  |  |  |  |  | 
4 | CC(C)C[C@@H](C(=O)N[C@@H]1CCC2(CCN(CCC(C)(C)C)CC2)c2ccccc21)N1CCCC1=O [compound 182] | > 5 µM | < 25% | > 5 µM | < 25% | < 2 µM | 25 to 100% | 2 to 5 µM | 25 to 100% |  |  |  |  |  |  |  | 
5 | CCN(C(=O)CC(F)(F)F)[C@H]1CCC2(CCN(CCC(C)(C)C)CC2)c2ccccc21 [compound 183] | > 5 µM | < 25% | > 5 µM | < 25% | < 2 µM | 25 to 100% | 2 to 5 µM | 25 to 100% |  |  |  |  |  |  |  | 
6 | CC(=O)N(C)[C@H]1CCC2(CCN(CCC(C)C)CC2)c2ccccc21 [compound 184] | > 5 µM | < 25% | > 5 µM | < 25% | < 2 µM | 25 to 100% | < 2 µM | 25 to 100% |  |  |  |  |  |  |  | 
7 | CC(=O)N[C@H]1CCC2(CCN(CCCC(F)(F)F)CC2)c2ccccc21 [compound 185] |  |  |  |  |  |  |  |  | + (activity was measured to be greater than 5.0 μM) | 25 to 100% | + (activity was measured to be greater than 5.0 μM) | < 25% | ++ (activity was measured to be from 2.0 μM to 5.0 μM) | 25 to 100% | ++ (activity was measured to be from 2.0 μM to 5.0 μM) | 25 to 100%
8 | CC(=O)N1CCCCC1C(=O)N[C@@H]1CCC2(CCN(CCC(C)(C)C)CC2)c2ccccc21 (some centres unmarked) [compound 186] |  |  |  |  |  |  |  |  | + (activity was measured to be greater than 5.0 μM) | < 25% | + (activity was measured to be greater than 5.0 μM) | < 25% | +++ (activity was measured to be less than 2.0 μM) | 25 to 100% | ++ (activity was measured to be from 2.0 μM to 5.0 μM) | 25 to 100%
9 | CCN(C(=O)CCNC(C)=O)[C@H]1CCC2(CCN(CCC(C)(C)C)CC2)c2ccccc21 [compound 187] |  |  |  |  |  |  |  |  | + (activity was measured to be greater than 5.0 μM) | < 25% | + (activity was measured to be greater than 5.0 μM) | < 25% | +++ (activity was measured to be less than 2.0 μM) | 25 to 100% | +++ (activity was measured to be less than 2.0 μM) | 25 to 100%
10 | CC(C)(C)CCN1CCC2(CC[C@@H](NC(=O)C3CCOCC3)c3ccccc32)CC1 [compound 188] |  |  |  |  |  |  |  |  | + (activity was measured to be greater than 5.0 μM) | < 25% | + (activity was measured to be greater than 5.0 μM) | < 25% | +++ (activity was measured to be less than 2.0 μM) | 25 to 100% | + (activity was measured to be greater than 5.0 μM) | < 25%
11 | CC(=O)N[C@@H]1CCC2(CCN(CCC(C)(C)C)CC2)c2cc(F)ccc21 [compound 189] |  |  |  |  |  |  |  |  | + (activity was measured to be greater than 5.0 μM) | < 25% | +++ (activity was measured to be less than 2.0 μM) | < 25% | +++ (activity was measured to be less than 2.0 μM) | 25 to 100% | +++ (activity was measured to be less than 2.0 μM) | 25 to 100%
12 | CC(=O)N1CCC(C(=O)N[C@H]2CCC3(CCN(CCC(C)(C)C)CC3)c3ccccc32)CC1 [compound 191] |  |  |  |  |  |  |  |  | + (activity was measured to be greater than 5.0 μM) | < 25% | + (activity was measured to be greater than 5.0 μM) | < 25% | +++ (activity was measured to be less than 2.0 μM) | 25 to 100% | +++ (activity was measured to be less than 2.0 μM) | 25 to 100%
13 | CC(C)(C)CCN1CCC2(CC[C@@H](NC(=O)[C@H]3CCC(=O)N3)c3ccc(F)cc32)CC1 [compound 192] |  |  |  |  |  |  |  |  | + (activity was measured to be greater than 5.0 μM) | < 25% | + (activity was measured to be greater than 5.0 μM) | < 25% | +++ (activity was measured to be less than 2.0 μM) | 25 to 100% | + (activity was measured to be greater than 5.0 μM) | < 25%
